{"source": "patent US20240368192A1", "about": "“Nitrogen-Containing Heterocyclic Compound, and Preparation Method Therefor, Intermediate Thereof, and Application Thereof” (Shanghai Allist Pharmaceuticals Co., Ltd., priority 2021, published 2024)", "key": {"Ba/F3 KRAS-G12D cells": {"target": "Ba/F3 KRAS-G12D cells (Homo sapiens, UniProt P01116, G12D, cells depend on it)", "sequence (P01116 whole entry G12D)": "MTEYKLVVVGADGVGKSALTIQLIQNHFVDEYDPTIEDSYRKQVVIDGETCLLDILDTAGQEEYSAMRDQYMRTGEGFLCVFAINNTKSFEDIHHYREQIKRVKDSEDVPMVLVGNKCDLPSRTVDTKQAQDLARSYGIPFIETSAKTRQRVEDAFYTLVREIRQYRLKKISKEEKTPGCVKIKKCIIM", "assay": "Proliferation inhibitory activity on Ba/F3 KRAS-G12D stably transfected cell line (CellTiter-Glo, 72 hours)", "assay_type": "cell-based, mouse", "settings": "read-out: Ba/F3 KRAS-G12D IC50", "excerpt": "(§1) Test Example 1: Proliferation Inhibitory Activity on Ba/F3 KRAS-G12D, Ba/F3 KRAS-G12V Stably Transfected Cell Lines and AGS Tumor Cell Lines Containing KRAS G12D Mutations\n(§2) To determine the proliferation inhibitory activity of the compounds in vitro on mouse pro-B cells Ba/F3 (Ba/F3 KRAS-G12D and Ba/F3 KRAS-G12V cells stably expressing KRAS G12D/V mutant proteins) and gastric cancer AGS cells expressing KRAS G12D mutant protein.\n(§3) Cell sources. Ba/F3 KRAS-G12D and Ba/F3 KRAS-G12V were purchased from Kyinno Biotech (Beijing) Co., Ltd, Cat. No.: KC-1259 and KC-1261, respectively; AGS was purchased from Shanghai Bioleaf Biotech Co., Ltd.\n(§4) Cells in the logarithmic growth phase were seeded in a 96-well plate (8000, 8000, 4000 cells/well, 90 μL/well for Ba/F3 KRAS-G12D, Ba/F3 KRAS-G12V, and AGS cells respectively), incubated at 37° C. for 1 day with 5% CO2, and then a gradient dilution of the test compound was added thereto (compounds 1 to 28 and comparative compounds). The details were as follows, the compound stock solution (10 mM) previously dissolved in DMSO was diluted to 10 gradient concentrations at a fold ratio (4 fold) and diluted to 10 fold of the target concentration in another 96-well plate with culture medium, and then 10 μL/well of the compound solution was added to the 96-well plate seeded with cells to reach the target concentration (10000, 2500, 625, 156, 39, 10, 2.5, 0.6, 0.15, 0.04 nM). Each concentration was provided with 3 duplicate wells and a blank control. After continued incubation at 37° C. and 5% CO2 for 72 hours, 50 μL of CellTiter-Glo*2.0 reagent (luciferase ATP bioluminescence detection reagent, purchased from Promega, Cat. No.: G9243) was added to each well, shaken for 2 minutes, and incubated at room temperature for 8 minutes, and then fluorescence luminescence intensity was detected (light collection time was 100 ms). The inhibitory rate of compounds with various concentrations on cell proliferation was calculated. Cell proliferation inhibition rate (%)=[(luminous intensitycontrol group containing cell culture medium for 72 hour−luminous intensitycompound group for 72 hour)/(luminous intensitycontrol group containing cell culture medium for 72 hours−luminous intensitycontrol group without cell culture medium for 72 hour)]×100%. GraphPad Prism 8.3 software was used to analyze the data, and nonlinear S-curve regression was used to fit the data to obtain a dose-effect curve, from which the IC50 value was calculated."}, "HPAC cells": {"tested_on": "HPAC cells", "assay": "In vivo efficacy in HPAC cell line xenograft tumor model", "settings": "30 mg/kg intraperitoneally twice a day for 10 days, day 10 vs day 0, HPAC xenograft in BALB/c nude mice", "experimental": "Test Example 2: In Vivo Efficacy of Test Compounds in HPAC Model\nThis experiment is used to evaluate the in vivo efficacy of compounds in the HPAC model.\nSource of experimental animals: Beijing Vital River Laboratory Animal Technology Co., Ltd., certificate number: 20170011007990.\nAnimal modeling and random grouping: HPAC cells were cultured and expanded to 30 T175 cm^2 culture flasks. Cells were collected, resuspended in serum-free culture medium DMEM for counting, and added with matrix glue at a ratio of 1:1, and inoculated into the right anterior subcutaneous region of BALB/c Nude mice at 5×10^6 cells/0.1 mL. When the average tumor volume reached approximately 281 mm^3, mice were randomly divided into various experimental groups according to tumor size, with 5 mice per group. The day of grouping was defined as day 0, that is, DO.\nExperimental scheme: BALB/c nude mice were subcutaneously inoculated with HPAC cells to establish a cell line xenograft tumor model. The test was divided into a 30 mg/kg group of compound 21, a 30 mg/kg group of comparative compound, and a vehicle group, with 5 mice in each group. […] During the entire experiment, the body weight and tumor size of the mice were measured on days 4, 7, and 10 to observe whether toxic reactions occurred. Efficacy was evaluated based on relative tumor proliferation rate. […]"}, "Ba/F3 KRAS-G12V cells": {"target": "Ba/F3 KRAS-G12V cells (Homo sapiens, UniProt P01116, G12V, cells depend on it)", "sequence (P01116 whole entry G12V)": "as the sequence (P01116 whole entry G12D) above, with D12V counted along it", "assay": "Proliferation inhibitory activity on Ba/F3 KRAS-G12V stably transfected cell line (CellTiter-Glo, 72 hours)", "assay_type": "cell-based, mouse", "settings": "read-out: Ba/F3 KRAS-G12V IC50", "excerpt": "as §1, §2, §3, §4"}, "AGS cells": {"tested_on": "AGS cells", "assay": "Proliferation inhibitory activity on AGS tumor cell line containing KRAS G12D mutation (CellTiter-Glo, 72 hours)", "assay_type": "cell-based", "settings": "Homo sapiens", "excerpt": "as §1, §2, §3, §4"}, "[1]": {"assay": "Body weight change of mice in HPAC xenograft model", "assay_type": "in vivo", "settings": "30 mg/kg intraperitoneally twice a day for 10 days, vs D0 weight, HPAC xenograft in BALB/c nude mice", "experimental": "Experimental scheme: BALB/c nude mice were subcutaneously inoculated with HPAC cells to establish a cell line xenograft tumor model. The test was divided into a 30 mg/kg group of compound 21, a 30 mg/kg group of comparative compound, and a vehicle group, with 5 mice in each group. The mice were administered intraperitoneally in an administration volume of 10 μL/g. The vehicle group was given an equal amount of vehicle (sulfobutyl-β-cyclodextrin sodium salt dissolved in 50 mM citric acid buffer, the mass-to-volume concentration of sulfobutyl-β-cyclodextrin sodium salt was 10%, and the pH value of the vehicle was 5.0), administered twice a day for 10 days. During the entire experiment, the body weight and tumor size of the mice were measured on days 4, 7, and 10 to observe whether toxic reactions occurred. Efficacy was evaluated based on relative tumor proliferation rate. Other compounds of the present disclosure (compounds 1 to 20 and 22 to 28) were tested with reference to compound 21. Formula for calculating weight change: weight change (%)=(weight/D0 weight−1)×100%."}}, "data": [{"smiles": "C#Cc1c(F)ccc2cc(O)cc(-c3nc(Cl)c4c(N5C[C@H]6CC[C@@H](C5)N6)nc(OC[C@@]56CCCN5C[C@H](F)C6)nc4c3F)c12", "note": "[Compound 21, 4-(4-((1R,5S)-3,8-Diazabicyclo[3.2.1]octan-3-yl)-5-chloro-8-fluoro-2-(((2R,7aS)-2-fluorohexahydro-1H-pyrrolizin-7a-yl)methoxy)pyrido[4,3-d]pyrimidin-7-yl)-5-ethynyl-6-fluoronaphthalen-2-ol]", "values": [{"measurement": "GI50", "setting": "Ba/F3 KRAS-G12D cells", "value": 1, "unit": "nM"}, {"measurement": "T/C % (relative tumor proliferation rate)", "setting": "HPAC cells", "value": "−64.96", "unit": "%"}, {"measurement": "GI50", "setting": "Ba/F3 KRAS-G12V cells", "value": "5000 to 10000", "unit": "nM"}, {"measurement": "IC50", "setting": "AGS cells", "value": 9, "unit": "nM"}, {"measurement": "Weight change (%)", "setting": "[1]", "value": "−7.27", "unit": "%"}]}]}
